The subject of this test is BDF1 mice, P388 leukemia ip, median survival T/C. In words: NCI In Vivo Anticancer Drug Screen. Data for tumor model P388 Leukemia (intraperitoneal) in B6D2F1 (BDF1) mice. Particulars: endpoint: median survival time, higher = longer survival. The procedure, abridged: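 Compound-treated tumour-bearing mice were compared with vehicle-treated controls. Survival was recorded, and the value is the treated-group measurement divided by the control-group measurement (T/C).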

Setting [1] is: dose: 100.0 mg/kg/injection, schedule: Q01DX009 (ip), vehicle: saline with Tween-80.
Setting [2] is: dose: 200.0 mg/kg/injection, schedule: Q01DX009 (ip), vehicle: saline with Tween-80.
Setting [3] is: dose: 50.0 mg/kg/injection, schedule: Q01DX009 (ip), vehicle: saline with Tween-80.
Where [4] appears, read: dose: 100.0 mg/kg/injection, schedule: Q04DX003 (ip), vehicle: saline with Tween-80.
The mark [5] stands for this setting: dose: 200.0 mg/kg/injection, schedule: Q04DX003 (ip), vehicle: saline with Tween-80.

Our source for the T/C values is PubChem BioAssay AID328 (DTP/NCI, 2004).

Values joined by “and” are separate entries in the source; they are usually repeats but may differ in a detail not shown here. Equal values may be shown once. Inconclusive results and toxic doses are left out. Starred links: 1 amine or outer side, 2 acyl side, 3 side chain; linkers in the order of their positions; H or OH if unused. Positions of bridges follow the written chain, without caps; N, C: chain ends. Non-standard residues stand in square brackets, D forms with d. Residues, ends and D or L forms follow the SMILES beside them. Chains are numbered I, II in the order given. Actinocin(1to9) = Cc1c2oc3c(C)ccc(C(=O)[*:2])c3nc-2c(C(=O)[*:1])c(N)c1=O; X3 = O=C1CC(C(=O)[*:2])N([*:1])C1; NMeV = CN[CH](C(=O)O)C(C)C; Sar = CNCC(=O)O

As to `CN=C(N)c1ccc(N=C(N)c2ccc(N=C(N)c3ccc(NC(=O)Nc4cccc(NC(=O)Nc5ccc(C(N)=Nc6ccc(C(N)=Nc7ccc(C(N)=NC)cc7)cc6)cc5)c4)cc3)cc2)cc1`, the T/C was 119 % of control (dose: 0.8 mg/kg/injection, schedule: Q01DX009 (ip), vehicle: saline with Tween-80); 162 % of control (dose: 3.0 mg/kg/injection, schedule: Q01DX009 (ip), vehicle: saline with Tween-80); 150 % of control (dose: 4.5 mg/kg/injection, schedule: Q04DX003 (ip), vehicle: saline with Tween-80); 175 % of control and 195 % of control (dose: 5.0 mg/kg/injection, schedule: Q01DX009 (ip), vehicle: saline with Tween-80); 150 % of control (dose: 7.0 mg/kg/injection, schedule: Q04DX003 (ip), vehicle: saline with Tween-80); 212 % of control (dose: 8.0 mg/kg/injection, schedule: Q01DX009 (ip), vehicle: saline with Tween-80). Also, the T/C (dose: 11.0 mg/kg/injection, schedule: Q04DX003 (ip), vehicle: saline with Tween-80) was 154 % of control; the T/C (dose: 12.0 mg/kg/injection, schedule: Q01DX009 (ip), vehicle: saline with Tween-80) was 168 % of control and 170 % of control; the T/C (dose: 17.0 mg/kg/injection, schedule: Q04DX003 (ip), vehicle: saline with Tween-80) was 170 % of control and 179 % of control; the T/C (dose: 18.0 mg/kg/injection, schedule: Q01DX009 (ip), vehicle: saline with Tween-80) was 240 % of control and 192 % of control; the T/C (dose: 25.0 mg/kg/injection, schedule: Q04DX003 (ip), vehicle: saline with Tween-80) was 200 % of control; the T/C (dose: 27.0 mg/kg/injection, schedule: Q01DX009 (ip), vehicle: saline with Tween-80) is 200 % of control. Moreover, the T/C is 100 % of control (dose: 37.0 mg/kg/injection, schedule: Q01DX009 (ip), vehicle: saline with Tween-80); 166 % of control and 191 % of control (dose: 37.0 mg/kg/injection, schedule: Q04DX003 (ip), vehicle: saline with Tween-80); 181 % of control (dose: 37.5 mg/kg/injection, schedule: Q04DX003 (ip), vehicle: saline with Tween-80); 158 % of control and 195 % of control (dose: 55.0 mg/kg/injection, schedule: Q04DX003 (ip), vehicle: saline with Tween-80).

Regarding `N#CC1(c2ccc(Cl)cc2)CCC1`, the T/C under setting [1] was 112 % of control and the T/C under setting [2] is 108 % of control.

As to `CN1C(=O)C(C2Sc3ccccc3NC2=O)SC1=S` (configuration not stated), the T/C runs as follows: under setting [3], 102 % of control; under setting [1], 104 % of control; under setting [2], 99 % of control.

As to `COc1ccc(OCC(O)CN2CCN(c3ccc(Cl)cc3)CC2)cc1` (configuration not stated), the T/C is 100 % of control (dose: 6.25 mg/kg/injection, schedule: Q01DX009 (ip), vehicle: Klucel (hydroxypropylcellulose) (HPC)); 95 % of control (dose: 12.5 mg/kg/injection, schedule: Q01DX009 (ip), vehicle: Klucel (hydroxypropylcellulose) (HPC)); 86 % of control (dose: 25.0 mg/kg/injection, schedule: Q01DX009 (ip), vehicle: Klucel (hydroxypropylcellulose) (HPC)).

For the molecule `CCO/C=C/C(=O)NC(=O)OCC`, the T/C was 98 % of control under setting [1]; 95 % of control under setting [4]; 107 % of control under setting [2]; 95 % of control under setting [5]; 109 % of control (dose: 400.0 mg/kg/injection, schedule: Q01DX009 (ip), vehicle: saline with Tween-80); 90 % of control (dose: 400.0 mg/kg/injection, schedule: Q04DX003 (ip), vehicle: saline with Tween-80).

For `COc1cc(Cc2nccc3cc(OC)c(OC)cc23)c(C(C)=O)cc1OC`, the T/C (dose: 8.0 mg/kg/injection, schedule: Q01DX009 (ip), vehicle: saline) is 153 % of control; the T/C (dose: 8.2 mg/kg/injection, schedule: Q01DX009 (ip), vehicle: saline sonified) was 150 % of control; the T/C (dose: 12.5 mg/kg/injection, schedule: Q01DX009 (ip), vehicle: saline sonified) was 155 % of control; the T/C (dose: 18.75 mg/kg/injection, schedule: Q01DX009 (ip), vehicle: saline sonified) is 195 % of control.

For the molecule `CC(C)C(O)(C(=O)OCC1=CC[N+]2([O-])CCC(O)C12)C(C)O` (configuration not stated), the T/C (dose: 200.0 mg/kg/injection, schedule: Q01DX006 (ip), vehicle: water) was 110 % of control; the T/C (dose: 800.0 mg/kg/injection, schedule: Q01DX006 (ip), vehicle: water) was 100 % of control; the T/C (dose: 1600.0 mg/kg/injection, schedule: Q01DX006 (ip), vehicle: water) was 94 % of control.

Turning to `COC(=O)c1cc(=O)n(-c2ccccc2C(F)(F)F)c(SC)n1`, the T/C reads like this: (dose: 100.0 mg/kg/injection, schedule: Q04DX003 (ip), vehicle: Klucel (hydroxypropylcellulose) (HPC)) 116 % of control; (dose: 400.0 mg/kg/injection, schedule: Q04DX003 (ip), vehicle: Klucel (hydroxypropylcellulose) (HPC)) 123 % of control.

As to `Cc1c2oc3c(C)ccc(C(=O)NC4C(=O)NC(C(C)C)C(=O)N5CCCC5C(=O)N(C)CC(=O)N(C)C(C(C)C)C(=O)OC4C)c3nc-2c(C(=O)NC2C(=O)NC(C(C)C)C(=O)N3CC(=O)CC3C(=O)N(C)CC(=O)N(C)C(C(C)C)C(=O)OC2C)c(N)c1=O` (configuration not stated) (I: TV[X3][Sar][NMeV] / II: TVP[Sar][NMeV]; ester I:1-I:C, II:1-II:C; linker I:N-II:N via Actinocin(1to9); configuration not given here), the T/C (dose: 1.6 micrograms/kg/injection, schedule: Q01DX009 (ip), vehicle: water) was 120 % of control; the T/C (dose: 4.7 micrograms/kg/injection, schedule: Q04DX003 (ip), vehicle: water) is 163 % of control; the T/C (dose: 9.4 micrograms/kg/injection, schedule: Q04DX003 (ip), vehicle: water) is 162 % of control; the T/C (dose: 12.5 micrograms/kg/injection, schedule: Q01DX009 (ip), vehicle: water) is 172 % of control; the T/C (dose: 25.0 micrograms/kg/injection, schedule: Q01DX001 (ip), vehicle: water) is 155 % of control; the T/C (dose: 25.0 micrograms/kg/injection, schedule: Q01DX009 (ip), vehicle: water) was 120 % of control. Moreover, the T/C (dose: 37.5 micrograms/kg/injection, schedule: Q04DX003 (ip), vehicle: water) is 175 % of control; the T/C (dose: 50.0 micrograms/kg/injection, schedule: Q01DX001 (ip), vehicle: water) is 155 % of control; the T/C (dose: 75.0 micrograms/kg/injection, schedule: Q04DX003 (ip), vehicle: water) was 86 % of control.

As to `COc1cc(N)ccc1C(=O)O`, the T/C by setting is: (dose: 0.39 mg/kg/injection, schedule: Q01DX009 (ip), vehicle: saline) 103 % of control; (dose: 0.78 mg/kg/injection, schedule: Q01DX009 (ip), vehicle: saline) 99 % of control; (dose: 3.12 mg/kg/injection, schedule: Q01DX009 (ip), vehicle: saline) 115 % of control; (dose: 50.0 mg/kg/injection, schedule: Q01DX009 (ip), vehicle: saline) 95 % of control; (dose: 100.0 mg/kg/injection, schedule: Q01DX009 (ip), vehicle: saline) 101 % of control; (dose: 200.0 mg/kg/injection, schedule: Q01DX009 (ip), vehicle: saline) 96 % of control. Where the note is “dose: 400.0 mg/kg/injection, schedule: Q01DX009 (ip), vehicle: saline”, the T/C was 104 % of control.

Turning to `CC(=O)OC1C(CO)OC2C1Oc1nc(=N)c(F)cn12` (configuration not stated), the T/C reads like this: (dose: 1.56 mg/kg/injection, schedule: Q01DX009 (ip), vehicle: saline) 176 % of control; (dose: 3.13 mg/kg/injection, schedule: Q01DX009 (ip), vehicle: saline) 92 % of control and 102 % of control.

For `CN(C)C(=S)NCc1ccccc1`, the T/C by setting is: under setting [3], 109 % of control; under setting [1], 100 % of control; under setting [2], 100 % of control.

With `COc1ccc(SC2=C(N(C)C(C)=O)C(=O)c3ccccc3C2=O)cc1`, the T/C (dose: 0.93 mg/kg/injection, schedule: Q01DX009 (ip), vehicle: Klucel (hydroxypropylcellulose) (HPC)) is 109 % of control; the T/C (dose: 1.87 mg/kg/injection, schedule: Q01DX009 (ip), vehicle: Klucel (hydroxypropylcellulose) (HPC)) was 113 % of control; the T/C (dose: 3.75 mg/kg/injection, schedule: Q01DX009 (ip), vehicle: Klucel (hydroxypropylcellulose) (HPC)) was 113 % of control; the T/C (dose: 7.5 mg/kg/injection, schedule: Q01DX009 (ip), vehicle: Klucel (hydroxypropylcellulose) (HPC)) was 108 % of control; the T/C (dose: 11.0 mg/kg/injection, schedule: Q04DX003 (ip), vehicle: Klucel (hydroxypropylcellulose) (HPC)) was 100 % of control; the T/C (dose: 17.0 mg/kg/injection, schedule: Q04DX003 (ip), vehicle: Klucel (hydroxypropylcellulose) (HPC)) was 100 % of control.

`NC(=O)OCC#CCCl`: the T/C runs as follows: under setting [3], 100 % of control; under setting [1], 98 % of control; under setting [2], 96 % of control.

As for `COC(CN(C)C(=O)NC1CCCCC1)OC`, the T/C was 95 % of control (dose: 50.0 mg/kg/injection, schedule: Q04DX003 (ip), vehicle: saline with Tween-80); 100 % of control under setting [4]; 100 % of control under setting [5].
